Results on 46 compounds are retold here after the Deep4Chem optical property database.

The data set is described as follows: photoluminescence quantum yield (fraction); solvent given as SMILES.

For the setting “in ClCCl”, `CC(C)c1cccc(C(C)C)c1N1C(=O)c2ccc3c(-c4ccccc4)c4c5ccc6c7c(ccc(c(-c8ccccc8)c4c4ccc(c2c34)C1=O)c75)C(=O)N(c1c(C(C)C)cccc1C(C)C)C6=O` registered a photoluminescence quantum yield of 0.24.

The compound `N#CC1=CC(C=O)=CC(C#N)=P1(c1ccccc1)c1ccccc1` displayed a photoluminescence quantum yield (in ClC(Cl)Cl) of 0.72.

With `COc1ccc2cc3cccc[n+]3cc2c1`, the photoluminescence quantum yield (in O) is 0.2.

With `Cc1ccc(-n2c3ccccc3c3cc(C=C(C#N)C#N)ccc32)cc1`, the photoluminescence quantum yield worked out at 0.12 (in C1CCOC1); 0.04 (in CC#N); 0.05 (in CC(C)=O); 0.09 (in CCOC(C)=O); 0.03 (in CO); 0.04 (in CS(C)=O). Further, the photoluminescence quantum yield (in Cc1ccccc1) was found to be 0.11 and the photoluminescence quantum yield (in ClC(Cl)Cl) turned out to be 0.08.

As for `CC1(C)c2ccccc2N(c2ccc(-c3nnc(-c4cc(-c5ccccc5)c(-c5ccccc5)c(-c5ccccc5)c4-c4ccccc4)o3)cc2)c2ccccc21`, the photoluminescence quantum yield is, setting by setting: (in Cc1ccccc1) 0.235; (in c1ccc(-n2c(-c3c(-n4c5ccccc5c5ccccc54)cccc3-n3c4ccccc4c4ccccc43)nc3ccccc32)cc1) 0.359.

Consider `CCCc1ccc(C#Cc2cc(C#Cc3ccc(N(C)C)cc3)c3ccc4c(C#Cc5ccc(N(C)C)cc5)cc(C#Cc5ccc(N(C)C)cc5)c5ccc2c3c54)cc1`, for which the photoluminescence quantum yield (in ClCCl) turned out to be 0.47.

In the case of `O=c1[nH]nc(-c2ccc(/C=C/c3ccc(-c4n[nH]c(=O)o4)cc3)cc2)o1`, the photoluminescence quantum yield (in CN(C)C=O) was determined as 0.5.

Take `O=Cc1ccc(-c2cccc(-c3nc4ccccc4s3)c2O)s1`: the photoluminescence quantum yield is 0.123 (in CCO), 0.164 (in ClCCl) and 0.02 (in O).

`CCCCCCC(CCCCCC)N1C(=O)c2cccc3c(-c4ccc(-c5ccc(OC)cc5)cc4)ccc(c23)C1=O`: the photoluminescence quantum yield by setting is: (in CCCCCC) 0.5; (in CCCCCCCCCCCCCC) 0.5; (in CCCCCCCCCCCO) 0.56; (in CCCCO) 0.16; (in CN(C)C=O) 0.15; (in Cc1ccccc1) 0.4. The same compound showed a photoluminescence quantum yield (in ClC(Cl)Cl) of 0.67.

With `CCN(CC)c1ccc(C(=C(c2ccc(B(c3c(C)cc(C)cc3C)c3c(C)cc(C)cc3C)cc2)c2ccc(B(c3c(C)cc(C)cc3C)c3c(C)cc(C)cc3C)cc2)c2ccc(N(CC)CC)cc2)cc1`, under “in C1CCOC1”, the photoluminescence quantum yield was found to be 0.29.

`Cc1nc2c(ccc3c2sc(/C=C/c2ccc(N(c4ccccc4)c4ccccc4)cc2)[n+]3C)s1`: the photoluminescence quantum yield (in ClC(Cl)Cl) came out at 0.

As to `CCCC1(CCC)c2cc(-c3ccc(C(C)(C)C)cc3)ccc2-c2ccc(-c3ccc4c(c3)C(CCC)(CCC)c3cc(-c5ccc(C(C)(C)C)cc5)ccc3-4)cc21`, the photoluminescence quantum yield (in C1CCCCC1) stood at 0.92.

`CC(C)(C)c1ccc2c(c1)c1cc(C(C)(C)C)ccc1n2-c1nc2ccccc2nc1-n1c2ccc(C(C)(C)C)cc2c2cc(C(C)(C)C)ccc21`: the photoluminescence quantum yield (in Cc1ccccc1) was found to be 0.32.

As to `Fc1ccc(-c2c3ccccc3nc3cc4ccccc4cc23)cc1`, where the note is “in ClCCl”, the photoluminescence quantum yield was found to be 0.48.

`Cc1ccc(C#Cc2c3cc4ccccc4cc3c(C#C[Si](C(C)C)(C(C)C)C(C)C)c3cc4ccccc4cc23)cc1` had a photoluminescence quantum yield (in ClCCl) of 0.1.

Take `COc1nc(Nc2cc3ccc4cccc5ccc(c2)c3c45)nc(OC)n1`: the photoluminescence quantum yield stood at 0.13 (in CC#N), 0.15 (in CCCCOCCCC) and 0.13 (in CO).

Consider `CCCCN1/C(=C/C=C/C2=[N+](C)c3ccccc3C2(C)C)C(C)(C)c2cc(Br)ccc21`, for which the photoluminescence quantum yield (in CS(C)=O) was determined as 0.12.

With `CC(C)(C)c1ccc2c(c1)c1cc(C(C)(C)C)ccc1n2-c1c(C#N)c(-n2c3ccc(C(C)(C)C)cc3c3cc(C(C)(C)C)ccc32)c(-n2c3ccc(C(C)(C)C)cc3c3cc(C(C)(C)C)ccc32)c(-n2c3ccc(C(C)(C)C)cc3c3cc(C(C)(C)C)ccc32)c1-n1c2ccc(C(C)(C)C)cc2c2cc(C(C)(C)C)ccc21`, the photoluminescence quantum yield (in Cc1ccccc1) worked out at 0.86.

In the case of `COc1cc(-c2nc3c4cccnc4c4ncccc4c3[nH]2)c(OC)cc1/C=C/c1ccncc1`, the photoluminescence quantum yield by setting is: (in C1CCOC1) 0.79; (in CC#N) 0.48; (in CN(C)C=O) 0.59; (in Cc1ccccc1) 0.34.

Where the note is “in ClCCl”, `O=P1(c2ccccc2)C(c2ccc(N(c3ccccc3)c3ccccc3)cc2)=Cc2cc3ccccc3cc21` (stereo not drawn) displayed a photoluminescence quantum yield of 0.85.

Consider `CC(=O)[B-]1(C(C)=O)OC(c2ccccc2)=CC(c2ccc3ccccc3c2)=[O+]1`, for which the photoluminescence quantum yield is, setting by setting: (in CC#N) 0.52; (in ClC(Cl)(Cl)Cl) 0.58.

`CC(C)(C)c1ccc2c(c1)c1cc(C(C)(C)C)ccc1n2-c1ccc(-c2nc(-c3ccc(-n4c5ccc(C(C)(C)C)cc5c5cc(C(C)(C)C)ccc54)cc3)nc(-c3ccc(P(=O)(c4ccccc4)c4ccccc4)cc3)n2)cc1`: the photoluminescence quantum yield (in O=P(c1ccccc1)(c1ccccc1)c1ccccc1Oc1ccccc1P(=O)(c1ccccc1)c1ccccc1) worked out at 0.74.

On to `Cc1ccc(N2C(c3ccccc3NS(=O)(=O)c3ccc(C)cc3)=NC(c3ccccc3)C2c2ccccc2)cc1` (stereo not drawn), for which the photoluminescence quantum yield (in Cc1ccccc1) amounted to 0.004.

Take `CCCCCCCCCCCCC(CCCCCCCCCC)Cn1c2cc(/C=C/C=C(C#N)C#N)c3cccc4c5cccc6c(/C=C/C=C(C#N)C#N)cc1c(c65)c2c34` (stereo not drawn): the photoluminescence quantum yield (in C1CCCCC1) was found to be 0.044, the photoluminescence quantum yield (in CC#N) worked out at 0.061, the photoluminescence quantum yield (in Cc1ccccc1) came to 0.073 and the photoluminescence quantum yield (in ClCCl) came out at 0.067.

Consider `COC(=O)c1nc(-c2ccc(OC)cc2)oc1C`, for which the photoluminescence quantum yield is, setting by setting: (in C1CCCCC1) 0.55; (in CC#N) 0.38; (in CCO) 0.41; (in CCOC(C)=O) 0.31.

Take `N#C/C(=C\c1ccc(-c2ccncc2)cc1)c1ccc(-c2ccncc2)cc1`: the photoluminescence quantum yield (in ClCCl) turned out to be 0.002.

`CN(C)c1ccc(/C=C/c2nc(/C=C/c3ccc(N(C)C)cc3)c3ccccc3n2)cc1` displayed a photoluminescence quantum yield (in ClCCl) of 0.02.

For the compound `c1ccc(-c2nn(-c3ccccc3)c3nc4ccc(N(c5ccccc5)c5ccccc5)cc4cc23)cc1`, the photoluminescence quantum yield (in C1CCCCC1) was found to be 0.76; the photoluminescence quantum yield (in C1CCOC1) stood at 0.7; the photoluminescence quantum yield (in CC#N) came out at 0.46; the photoluminescence quantum yield (in CC(C)=O) stood at 0.59; the photoluminescence quantum yield (in CCCCCl) is 0.7; the photoluminescence quantum yield (in CCCCOCCCC) is 0.76. The compound also returned a photoluminescence quantum yield (in CN(C)C=O) of 0.5.

Turning to `C(=C\c1ccc(-c2nnc(-c3ccccc3)o2)cc1)/c1ccc(-c2nnc(-c3ccccc3)o2)cc1`, under “in CN(C)C=O”, the photoluminescence quantum yield came to 0.8.

In the case of `CCCCCCCCC1(CCCCCCCC)c2cc(-c3ccc(C=C4C(=O)c5ccccc5C4=O)cc3)ccc2-c2ccc(-c3ccc(C=C4C(=O)c5ccccc5C4=O)cc3)cc21`, the photoluminescence quantum yield (in C1CCOC1) is 0.048; the photoluminescence quantum yield (in CC(C)=O) was 0.116; the photoluminescence quantum yield (in CCCCCC) is 0.007; the photoluminescence quantum yield (in CS(C)=O) was found to be 0.245; the photoluminescence quantum yield (in Cc1ccccc1) was 0.011; the photoluminescence quantum yield (in ClC(Cl)Cl) amounted to 0.014.

On to `CCOC(=O)c1sc2nc(C)c(CC)c(C#N)c2c1N`, for which the photoluminescence quantum yield (in c1ccccc1) came out at 0.054.

As to `CC1=CC(c2ccc3cc(N(C)C)ccc3c2)=[O+][B-](F)(F)O1`, the photoluminescence quantum yield was found to be 0.91 (in C1CCOC1); 0.14 (in CC#N); 0.53 (in CC(C)=O); 0.22 (in CS(C)=O); 0.93 (in Cc1ccccc1); 0.97 (in ClC(Cl)Cl). This compound displayed a photoluminescence quantum yield (in ClCCl) of 0.99.

Turning to `F[B-]1(F)n2c(NCc3ccccc3)ccc2C(c2c(Cl)cccc2Cl)=C2C=CC(NCc3ccccc3)=[N+]21`, the photoluminescence quantum yield is, setting by setting: (in CC#N) 0.42; (in CCCCCC) 0.55; (in CCOC(C)=O) 0.44; (in CO) 0.5; (in ClCCl) 0.52.

On to `CNc1cccc2c1-c1ccccc1C2=O`, for which the photoluminescence quantum yield came out at 0.094 (in C1CCCCC1), 0.0051 (in CC#N), 0.00014 (in CCO) and 0.063 (in c1ccccc1).

With `COc1ccc2n1[B-](F)(F)[N+]1=C(SC#N)C=CC1=C2c1ccccc1`, the photoluminescence quantum yield by setting is: (in CC#N) 0.05; (in CCCCCC) 0.08; (in CCOC(C)=O) 0.04; (in CO) 0.05; (in ClCCl) 0.07.

Where the note is “in CC#N”, `Cc1cc2nc3c(=O)[nH]c(=O)nc-3n(C)c2cc1C` had a photoluminescence quantum yield of 0.16.

`CCCCCCCCOc1ccc(C#Cc2ccc3oc4ccccc4c3c2)c(OCCCCCCCC)c1` displayed a photoluminescence quantum yield (in ClCCl) of 0.45.

`CCCCC(CC)Cn1c2cc(C#N)ccc2c2ccc(C#N)cc21` (stereo not drawn) gave a photoluminescence quantum yield (in ClCCl) of 0.3.

Regarding `COc1ccccc1`, the photoluminescence quantum yield (in C1CCCCC1) was determined as 0.36.

`CC(C)(C)NC(=O)c1ccc(-c2ccccc2)c2ccc3c4ccccc4c4ccccc4c3c12`: where the note is “in ClCCl”, the photoluminescence quantum yield is 0.08.

For the compound `Cc1ccc(-n2c(C)ccc2C)cc1`, the photoluminescence quantum yield reads like this: (in CC#N) 0.013; (in CCCCCC) 0.006.

`CCCN1c2ccccc2Sc2cc(/C=C\c3cc(=O)oc4cc(NC(=O)OCC)ccc34)ccc21`: the photoluminescence quantum yield (in ClC(Cl)Cl) was 0.62.

For `Cc1ccc(CN(Cc2ccc(C)cc2)c2nc(C#N)c(N(Cc3ccc(C)cc3)Cc3ccc(C)cc3)nc2C#N)cc1`, the photoluminescence quantum yield (in ClC(Cl)Cl) is 0.69.

For the compound `COc1ccc2c(C=C(C#N)C#N)cc3ccc4cc(C=C(C#N)C#N)c5ccc(OC)cc5c4c3c2c1`, the photoluminescence quantum yield (in ClC(Cl)Cl) was found to be 0.23.

For the setting “in ClCCl”, `c1cc2ccc3ccc(OP4(Oc5ccc6ccc7cccc8ccc5c6c78)=NP(Oc5ccc6ccc7cccc8ccc5c6c78)(Oc5ccc6ccc7cccc8ccc5c6c78)=NP(Oc5ccc6ccc7cccc8ccc5c6c78)(Oc5ccc6ccc7cccc8ccc5c6c78)=N4)c4ccc(c1)c2c34` yielded a photoluminescence quantum yield of 0.92.

As for `COc1ccc(C(=O)c2c(C)c3ccc4cccc5c6cccc7ccc2c(c76)c3c45)cc1`, under “in ClCCl”, the photoluminescence quantum yield was found to be 0.018.
